# Measured values taken from US12152060B2, “Interleukin-2 variants and methods of uses thereof” (Cugene Inc, priority 2018, dated 2024).
# Entries after “also recorded” stand apart in the source; their conditions may differ.
# Key:
# [1] = system: delayed-type hypersensitivity (DTH) mouse model; assay: KLH-induced delayed-type hypersensitivity (DTH) mouse model, ear thickness; assay type: in vivo
# Experimental: The ability of Treg cells induced by IL-2 variants to suppress T cell antigen-driven inflammation in vivo was assessed in a model of delayed-type hypersensitivity (DTH). Female Balb/C mice (7-week old) were acclimated in house for 7 days and randomized into groups. Subcutaneous administration of vehicle (PBS), P-0511 at either 0.1 mg/kg or 0.3 mg/kg was initiated on day-2 and was given either once every 3 days (Q3D) for three injections or once every 5 days (Q5D) for two injections. Mice were then sensitized with a subcutaneous administration of 100 μg keyhole limpet hemocyanin (KLH) in 200 μl saline on day 0. For Q3D dosing, two more subcutaneous injections of PBS or P-0511 (0.1 or 0.3 mg/kg) were administered on days 1 and 4; for Q5D dosing, one additional s.c. injection of PBS, 0.1 or 0.3 mg/kg P-0511 was administered on day 3. Mice received an intradermal challenge of KLH (5 μg in 10 μl saline) in right ear on day 5. Right ear thickness was measured using a caliper on day 5 prior KLH challenge and daily from day 6 to day 8 corresponding to 24 h, 48h, and 72 h post KLH challenge. One group of mice also received 5 mg/kg daily i.p. treatment of dexamethasone from day 5 to day 8 as a positive control.
# Kinetics of the DTH response using the change in ear thickness relative to baseline values (Δ ear thickness) at various times after KLH challenge was illustrated in FIG. 23.
# In a separate study, dose-dependent response of P-0511 (0.1, 0.3 and 1 mg/kg, Q5D) on suppression of KLH-induced DTH was determined and compared with Benchmark-1 (0.3 mg/kg, Q5D).
# [2] = system: regulatory T cells (CD4+CD25+FoxP3+ T cells), effector T cells and NK cells; assay: Treg versus effector T and NK cell proliferation and expansion in mice after a single subcutaneous injection; assay type: in vivo, mouse; settings: 0.3 mg/kg s.c. single dose, C57/BL6 mice; for Treg cell proliferation and expansion (Ki67 positive Treg, % Treg over CD4+ T cells or lymphocytes): days 3, 5, 7
# Experimental: IL-2 variant Fc fusion proteins were administered to mice and their ability to preferentially proliferate and expand regulatory T cells (CD4+CD25+FoxP3+ T cells) over effector T cells and NK cells were determined in vivo.
# Female C57/BL6 mice (7-week old) were received from Charles River Laboratory and acclimated in house for at least 7 days before the study. Vehicle (PBS), 0.3 mg/kg of each test compounds, or IL-2 benchmark compounds were subcutaneously administered to mice on day 0. Peripheral blood samples were collected into heparin-treated tubes on days 3, 5 and 7 post-treatment. Each group contained 6 mice and baseline blood was collected 2 days prior to the treatment (day-2). After red blood cell lysis, total viable mononuclear blood cells were counted by trypan blue dead cell exclusion method and proceeded to intracellular staining for immune cell phenotype and Ki67 proliferation markers using flow cytometric analysis. Cells were stained separately with two panels of antibodies as listed: 1) anti-mouse Foxp3-FITC, Ki67-PE, anti-mouse CD25-APC and anti-mouse CD4-Percpcy5.5 (1:50 dilution) for CD4+T-regulatory cells (Treg); 2) anti-mouse CD3-FITC, Ki67-PE, anti-mouse CD335-APC and anti-mouse CD8-Percpcy5.5 (1:50 dilution) for CD8+T and NK cells.
# [3] = system: STAT5 phosphorylation in CD4+ Treg cells (CD4+/Foxp3+/CD25high); assay: STAT5 phosphorylation in CD4+ Treg cells, human PBMC assay by FACS; assay type: cell-based; settings: for window for selective activation of Treg cells over CD4+ Tconv cells (in words): pSTAT5, Treg versus Tconv; for pSTAT5 activity profile compared with benchmark molecules (in words): Treg and CD4+ Tconv cells
# From the text: Single amino acid substitutions were introduced to IL-2 at positions corresponding to amino acids interacting with receptor subunit(s) β or γ or By. These substitutions were aimed to reduce IL-2 signaling capacity through the intermediate affinity IL-2Rβγ complex and confer signaling specificity from the high affinity IL-2Rαβγ. IL-2 variants containing single amino acid substitutions were examined for their ability to differentially stimulate STAT5 phosphorylation in CD4 positive Treg and Tconv cells. STAT5 is known to be involved in the downstream signaling cascade upon IL-2 binding to the transmembrane IL-2 receptors. The phosphorylation of STAT5 in defined lymphocyte subpopulations was measured using fresh human peripheral blood mononuclear cells (PBMC) and the forkhead transcription factor FOXP3 was used to identify the Treg population in FACS analysis.
# Briefly, human PBMC were isolated by Ficoll-Hypaque centrifugation from the buffy coat of a healthy donor. PBMC were starved in serum-free MACS buffer at 4° C. for 1 hour. 2×10^5 PBMC were then treated with serial dilutions of test compounds for 30 min at 37° C. Cells were fixed and permeabilized with Foxp3/Transcription Factor Staining Buffer Set (EBIO) by incubating with 1× Foxp3 fixation/permeabilization working solution for 30 minutes and washing with 1× permeabilization buffer. Cells were additionally fixed with Cytofix buffer and permeabilized with Perm Buffer III (BD Biosciences) and then washed. After blocking Fc receptors by adding human TruStain™ FcX (1:50 dilution), cells were stained with a mixture of anti-CD25-PE, anti-FOXP3-APC, anti-pSTAT5-FITC, and anti-CD4-PerCP-Cy5.5 antibodies at concentrations recommended by the manufacturer for 45 minutes at room temperature. Cells were collected by centrifugation, washed, resuspended in FACS buffer, and analyzed by flow cytometry. The flow cytometry data was gated into CD4+/Foxp3+/CD25^high and CD4+/Foxp3−/CD25^low groups for the Treg and CD4 conventional T cell subsets, respectively. Data are expressed as a percent of pStat5 positive cells in gated population.
# Treg cells in blood = assay: Pharmacodynamics study in mice following repeated administration (Q3D); assay type: in vivo, mouse; settings: 0.3 mg/kg s.c. Q3D x3; compared to P-0531 and Benchmark-1
# Experimental: Female Balb/C mice (7-week old) were acclimated in house for 5-7 days before the study. Vehicle (PBS), 0.3 mg/kg of P-0511, P-0512, P-0531, or Benchmark-1 compound were subcutaneously administered to mice (n=5/group) on days 0, 3, and 6. On days 3 and 9, three days after the first injection and multiple (3) injections, respectively, peripheral blood was collected. Based on earlier in vivo experiments, Treg cell activation, proliferation, and expansion were expected to peak on day 3, and thus three days post injection was selected for data collection and analysis. Changes in blood lymphocyte activation, proliferation, and expansion were measured by flow cytometry. P-0531 is the S125I equivalent of the wild type IL-2 fusion protein. The Benchmark-1 contains V91K mutation.
# [4] = system: STAT5 phosphorylation in CD4+/Foxp3+/CD25+ Treg, CD4+/Foxp3-/CD25+ CD4 effector and CD4+/Foxp3-/CD25- CD4 naive T cell subsets; assay: STAT5 phosphorylation in three CD4+ T cell subsets, human PBMC; assay type: cell-based; settings: FIG. 9
# Experimental: After human PBMC Cells were treated with serial dilutions of test compounds, fixed and permeabilized, washed, and stained with a mixture of anti-CD25-PE, anti-FOXP3-APC, anti-pSTAT5-FITC, and anti-CD4-PerCP-Cy5.5 antibodies, the flow cytometry analysis was gated into CD4+/Foxp3+/CD25+, CD4+/Foxp3−/CD25+, CD4+/Foxp3−/CD25− groups for the Treg, CD4 effector, and CD4 naive T cell subsets, respectively. Data are expressed as a percent of pSTAT5 positive cells in gated population and illustrated in FIG. 9.
compound,measurement,setting,value
"C[C@@H]1C[C@H]2[C@@H]3CCC4=CC(=O)C=C[C@]4(C)[C@@]3(F)[C@@H](O)C[C@]2(C)[C@@]1(O)C(=O)CO [dexamethasone, reference compound]",inhibition of KLH-induced inflammatory response (ear swelling),"[1]; 5 mg/kg daily i.p., 4 consecutive doses, 72 hours after KLH challenge",~85%
Benchmark-1: benchmark Fc-IL-2 variant fusion protein containing V91K mutation; SEQ ID NO: 191 [reference compound],Ki67 stimulation on CD8 T cells and NK cells,[2],strong Ki67 stimulation
same,"Treg cell proliferation and expansion (Ki67 positive Treg, % Treg over CD4+ T cells or lymphocytes)",[2],highest potency
same,"inhibition of ear inflammation (KLH-induced DTH), separate study","[1]; 0.3 mg/kg, Q5D",mild inhibition of ear swelling
Benchmark-3: benchmark Fc-IL-2 variant fusion protein containing N88D; SEQ ID NO: 192 [reference compound],Ki67 stimulation on CD8 T cells and NK cells,[2],low effects
same,"Treg cell proliferation and expansion (Ki67 positive Treg, % Treg over CD4+ T cells or lymphocytes)",[2],not efficacious
P-0303: Fc fusion protein of IL-2 variant Q126E; SEQ ID NO: 88,window for selective activation of Treg cells over CD4+ Tconv cells (in words),[3],modestly improved selective window
P-0363: Fc fusion protein of IL-2 variant D20T; SEQ ID NO: 72,window for selective activation of Treg cells over CD4+ Tconv cells (in words),[3],some or significant biased selective window
P-0372: Fc fusion protein of IL-2 variant L19Y; SEQ ID NO: 79,window for selective activation of Treg cells over CD4+ Tconv cells (in words),[3],modestly improved selective window
P-0373: Fc fusion protein of IL-2 variant L19N; SEQ ID NO: 80,window for selective activation of Treg cells over CD4+ Tconv cells (in words),[3],wide window for selective targeting of Treg subset; also recorded: some or significant biased selective window
P-0424: Fc fusion protein of IL-2 variant L19H; SEQ ID NO: 148,window for selective activation of Treg cells over CD4+ Tconv cells (in words),[3],selective activation of Treg cells over CD4+ Tconv cells
P-0425: Fc fusion protein of IL-2 variant L19D; SEQ ID NO: 149,window for selective activation of Treg cells over CD4+ Tconv cells (in words),[3],wide window for selective targeting of Treg subset
P-0447: Fc fusion protein of IL-2 variant L19H/Q126E; SEQ ID NO: 168,pSTAT5 activity profile compared with benchmark molecules (in words),[3],on par with Benchmark-3
P-0448: Fc fusion protein of IL-2 variant L19Q/Q126E; SEQ ID NO: 169,pSTAT5 activity profile compared with benchmark molecules (in words),[3],on par with Benchmark-3
P-0449: Fc fusion protein of IL-2 variant L19S/Q126E; SEQ ID NO: 170,pSTAT5 activity profile compared with benchmark molecules (in words),[3],on par with Benchmark-3
P-0491: Fc fusion protein of IL-2 variant L19H/S125I; SEQ ID NO: 185,window for selective activation of Treg cells over CD4+ Tconv cells (in words),[3],without altering Treg selectivity
P-0512: Fc fusion protein of IL-2 variant L19H/S125I/Q126K; SEQ ID NO: 199,Ki67 stimulation on CD8 T cells and NK cells,[2],mild Ki67 stimulation
same,"expansion of CD4+ Tconv cells, CD8 T cells or NK cells",[2],No significant expansion
same,"Treg cell proliferation and expansion (Ki67 positive Treg, % Treg over CD4+ T cells or lymphocytes)",[2],stronger in vivo efficacy
same,"Treg cell counts, fold changes relative to PBS and Treg/Tconv ratio",Treg cells in blood,superior capabilities to sustain Treg pool
same,"pSTAT5 potency and selectivity in Treg, Teff and naive CD4 T cell subsets (in words)",[4],comparable activity profile to Benchmark-1
P-0514: Fc fusion protein of IL-2 variant L19Q/S125I/Q126E; SEQ ID NO: 201,"expansion of CD4+ Tconv cells, CD8 T cells or NK cells",[2],No significant expansion
same,"Treg cell proliferation and expansion (Ki67 positive Treg, % Treg over CD4+ T cells or lymphocytes)",[2],stronger in vivo efficacy
"P-0531: Fc fusion protein of IL-2 variant S125I, the S125I equivalent of wild type P-0250; SEQ ID NO: 162",window for selective activation of Treg cells over CD4+ Tconv cells (in words),[3],without altering Treg selectivity
